Results reported in patent US10669272B2, “Substituted naphthyridinone compounds useful as T cell activators” (BRISTOL-MYERS SQUIBB COMPANY, priority 2018, dated 2020).
pEC50, pIC50: −log10 of the molar value. Like-named read-outs stand apart in the source and are kept apart here.

Key:
human DGKα = target: T1, human DGKα (Homo sapiens, UniProt P23743); assay: DGKα LIPGLO assay (extruded liposome substrate), in vitro DGK inhibition; assay type: biochemical; conditions: liposome (LIPGLO) assay; read-out: DGKa LIPGLO IC50
T1 construct: TVMV protease cleavage site (C); Hexa-His (C); made in house; host or cells: Sf9 insect cells (baculovirus, Bac-to-Bac)

human DGKζ = target: T2, human DGKζ (Homo sapiens, UniProt Q13574); assay: DGKζ LIPGLO assay (extruded liposome substrate), in vitro DGK inhibition; assay type: biochemical; conditions: liposome (LIPGLO) assay; read-out: DGKz LIPGLO IC50
T2 construct: TVMV protease cleavage site (C); Hexa-His (C); made in house; host or cells: Sf9 insect cells (baculovirus, Bac-to-Bac)

[1] = test system: OT-1 CD8+ T cells with SIINFEKL-loaded MC38 tumor cells; assay: Murine cytotoxic T lymphocyte assay (IFN-γ, OT-1 CTL with MC38 tumor cells); assay type: cell-based, mouse; conditions: Mus musculus, MC-38; read-out: msCTL INFg IC50
Outline: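 OT-1 CD8+ T cells, expanded 5 days with OVA peptide (1 μg/mL) and mIL2, pretreated 1 h with DGK inhibitors, then co-cultured overnight at 37° C at 1:10 with MC38 cells pulsed 3 h with 1 μg/mL SIINFEKL. IFN-γ in 24 h supernatant by AlphaLISA.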

naïve human CD8 T cells = assay: Human CD8 T cells IFN-γ assay; assay type: cell-based; conditions: Homo sapiens, T-cell, 20 h, normalized to 3 μM reference compound with anti-CD3 plus anti-CD28 as 100% activation; read-out: HuCD8 INFG Normalized EC50;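 further: Naïve human CD8 T cells stimulated with plate-bound anti-CD3 and soluble anti-CD28, IFN-γ in supernatant quantified by AlphaLISA and converted to pg/mL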
Human venous whole blood = assay: Human whole blood IFN-γ assay; assay type: cell-based; conditions: Homo sapiens, human whole blood, normalized to 3 μM reference compound with anti-CD3 plus anti-CD28 as 100% activation, read-out: INFg Whole Blood Normalized Agonist EC50;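 further: blood from healthy donors exposed to compound for 1 h before stimulation with anti-CD3 and anti-CD28 at 1 µg/mL each, IFN-γ quantified in supernatant by AlphaLISA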
Procedure: Human Whole Blood IFN-γ Assay
Human venous whole blood (22.5 μL per well), obtained from healthy donors, was pre-treated with compounds for one hour at 37° C. in a humidified 95% air/5% CO2 incubator. The blood was stimulated with 2.5 μL anti-human CD3 and anti-CD28 mAb at a final concentration of 1 μg/mL each for 24 hours at 37° C. IFN-γ in the supernatants was measured using AlphLISA kit (Cat # AL217).

T2 sequence (Q13574 with tags, fused parts or gaps isoform Q13574-4): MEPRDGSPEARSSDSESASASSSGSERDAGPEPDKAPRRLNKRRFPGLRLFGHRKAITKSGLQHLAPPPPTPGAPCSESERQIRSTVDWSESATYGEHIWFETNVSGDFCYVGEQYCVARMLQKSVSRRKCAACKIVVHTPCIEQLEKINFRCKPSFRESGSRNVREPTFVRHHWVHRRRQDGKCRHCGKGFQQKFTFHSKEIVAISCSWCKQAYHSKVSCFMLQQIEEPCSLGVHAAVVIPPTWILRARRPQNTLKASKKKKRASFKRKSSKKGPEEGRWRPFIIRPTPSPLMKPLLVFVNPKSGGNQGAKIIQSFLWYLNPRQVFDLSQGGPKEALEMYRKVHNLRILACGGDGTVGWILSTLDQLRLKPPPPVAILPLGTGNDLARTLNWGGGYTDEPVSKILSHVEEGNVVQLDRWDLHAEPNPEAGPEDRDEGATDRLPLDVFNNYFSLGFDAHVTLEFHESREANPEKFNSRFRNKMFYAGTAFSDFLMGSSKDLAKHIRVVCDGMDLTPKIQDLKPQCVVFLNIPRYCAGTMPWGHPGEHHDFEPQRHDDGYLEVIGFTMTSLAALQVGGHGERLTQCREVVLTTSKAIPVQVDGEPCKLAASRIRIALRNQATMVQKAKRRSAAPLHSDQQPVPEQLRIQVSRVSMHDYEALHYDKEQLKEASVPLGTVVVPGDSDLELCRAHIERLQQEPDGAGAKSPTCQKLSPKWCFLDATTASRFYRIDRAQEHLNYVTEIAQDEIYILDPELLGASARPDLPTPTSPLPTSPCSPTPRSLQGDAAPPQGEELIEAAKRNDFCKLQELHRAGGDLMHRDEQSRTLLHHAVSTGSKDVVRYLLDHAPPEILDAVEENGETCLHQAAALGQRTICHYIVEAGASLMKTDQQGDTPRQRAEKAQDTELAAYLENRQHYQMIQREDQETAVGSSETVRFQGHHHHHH
T1 sequence (P23743 with tags, fused parts or gaps): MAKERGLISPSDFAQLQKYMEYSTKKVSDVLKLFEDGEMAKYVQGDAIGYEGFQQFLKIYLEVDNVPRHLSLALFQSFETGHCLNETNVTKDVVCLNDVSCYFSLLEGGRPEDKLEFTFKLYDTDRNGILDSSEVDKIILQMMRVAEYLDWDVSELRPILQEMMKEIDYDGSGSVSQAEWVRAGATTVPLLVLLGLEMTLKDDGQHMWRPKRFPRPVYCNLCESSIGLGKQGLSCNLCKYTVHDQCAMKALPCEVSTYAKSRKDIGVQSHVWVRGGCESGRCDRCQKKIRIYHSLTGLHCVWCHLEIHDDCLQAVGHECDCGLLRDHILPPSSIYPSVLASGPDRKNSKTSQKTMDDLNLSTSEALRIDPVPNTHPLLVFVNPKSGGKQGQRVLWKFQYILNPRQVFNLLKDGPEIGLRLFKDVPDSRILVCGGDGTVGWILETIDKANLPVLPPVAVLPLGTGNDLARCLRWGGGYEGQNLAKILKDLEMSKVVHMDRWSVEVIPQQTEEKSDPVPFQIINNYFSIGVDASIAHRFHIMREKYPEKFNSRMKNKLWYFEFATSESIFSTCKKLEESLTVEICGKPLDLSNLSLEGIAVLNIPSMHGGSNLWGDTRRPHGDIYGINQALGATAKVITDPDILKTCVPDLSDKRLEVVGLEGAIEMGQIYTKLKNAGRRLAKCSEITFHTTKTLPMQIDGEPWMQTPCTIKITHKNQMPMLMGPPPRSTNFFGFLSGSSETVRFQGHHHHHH

C[C@@H]1CN(c2cc(=O)n(C)c3ccc(C#N)nc23)CCN1C(c1ccc(F)cc1)c1ccc(F)cc1 [Example 28, (R)-8-(4-(bis(4-fluorophenyl)methyl)-3-methylpiperazin-1-yl)-5-methyl-6-oxo-5,6-dihydro-1,5-naphthyridine-2-carbonitrile]
pIC50 (human DGKα): 5.34
pIC50 (human DGKζ): 5.68
pIC50 [1]: 6.24
pEC50 (naïve human CD8 T cells): 7.42
pEC50 (Human venous whole blood; 24 h): 5.28

C[C@@H]1CN(c2c(F)c(=O)n(C)c3ccc(C#N)nc23)CCN1C(c1ccc(F)cc1)c1ccc(F)cc1 [Example 30, (R)-8-(4-(bis(4-fluorophenyl)methyl)-3-methylpiperazin-1-yl)-7-fluoro-5-methyl-6-oxo-5,6-dihydro-1,5-naphthyridine-2-carbonitrile]
pIC50 (human DGKα): 6.30
pIC50 (human DGKζ): 6.37
pIC50 [1]: 7.82
pEC50 (naïve human CD8 T cells): 6.37
pEC50 (Human venous whole blood; 24 h): 5.80

C[C@@H]1CN(c2c(C#N)c(=O)n(C)c3ccc(C#N)nc23)CCN1C(c1ccc(F)cc1)c1ccc(F)cc1 [Example 32, (R)-8-(4-(bis(4-fluorophenyl)methyl)-3-methylpiperazin-1-yl)-5-methyl-6-oxo-5,6-dihydro-1,5-naphthyridine-2,7-dicarbonitrile]
pIC50 (human DGKα): 6.01
pIC50 (human DGKζ): 6.07
pIC50 [1]: 7.37
pEC50 (naïve human CD8 T cells): 7.77
pEC50 (Human venous whole blood): 6.40

C[C@H]1CN(c2cc(=O)n(C)c3ccc(C#N)nc23)CCN1C(c1ccc(F)cc1)c1ccc(F)cc1 [Example 35, (S)-8-(4-(bis(4-fluorophenyl)methyl)-3-methylpiperazin-1-yl)-5-methyl-6-oxo-5,6-dihydro-1,5-naphthyridine-2-carbonitrile]
pIC50 (human DGKα): 4.68
pIC50 (human DGKζ): 6.11
pIC50 [1]: 5.96
pEC50 (naïve human CD8 T cells): 7.21
pEC50 (Human venous whole blood; 24 h): 5.66

C[C@H]1CN(c2c(C#N)c(=O)n(C)c3ccc(C#N)nc23)CCN1C(c1ccc(F)cc1)c1ccc(F)cc1 [Example 38, (S)-8-(4-(bis(4-fluorophenyl)methyl)-3-methylpiperazin-1-yl)-5-methyl-6-oxo-5,6-dihydro-1,5-naphthyridine-2,7-dicarbonitrile]
pIC50 (human DGKα): 5.66
pIC50 (human DGKζ): 5.74
pIC50 [1]: 7.11
pEC50 (naïve human CD8 T cells): 7.17
pEC50 (Human venous whole blood; 24 h): 5.49

Cc1cc(C2CN(c3cc(=O)n(C)c4ccc(C#N)nc34)CC(C)N2C(c2ccc(F)cc2)c2ccc(F)cc2)ccn1 (stereo not drawn) [Example 84, 8-(4-(bis(4-fluorophenyl)methyl)-3-methyl-5-(2-methylpyridin-4-yl)piperazin-1-yl)-5-methyl-6-oxo-5,6-dihydro-1,5-naphthyridine-2-carbonitrile]
pIC50 (human DGKα): 4.09
pIC50 (human DGKζ): 3.62
pIC50 [1]: 5.00
pEC50 (naïve human CD8 T cells): 5.00
pEC50 (Human venous whole blood; 24 h): 4.70

Cc1c(N2CCN(C(c3ccc(F)cc3)c3ccc(F)cc3)[C@H](C)C2)c2nc(C#N)ccc2n(C)c1=O [Example 99, (R)-8-(4-(bis(4-fluorophenyl)methyl)-3-methylpiperazin-1-yl)-5,7-dimethyl-6-oxo-5,6-dihydro-1,5-naphthyridine-2-carbonitrile]
pIC50 (human DGKα): 5.15
pIC50 (human DGKζ): 5.55
pIC50 [1]: 5.92
pEC50 (naïve human CD8 T cells): 6.77
pEC50 (Human venous whole blood; 24 h): 5.55

C[C@@H]1CN(c2cc(=O)n(C)c3ccc(C#N)nc23)CCN1C(c1ccc(Cl)cc1)c1ccc(Cl)cc1 [Example 104, (R)-8-(4-(bis(4-chlorophenyl)methyl)-3-methylpiperazin-1-yl)-5-methyl-6-oxo-5,6-dihydro-1,5-naphthyridine-2-carbonitrile, dimethylformamide]
pIC50 (human DGKα): 5.36
pIC50 (human DGKζ): 5.36
pIC50 [1]: 6.25
pEC50 (naïve human CD8 T cells): 6.74
pEC50 (Human venous whole blood; 24 h): 5.19

CC[C@H]1CN(c2cc(=O)n(C)c3ccc(C#N)nc23)CCN1C(c1ccc(F)cc1)c1ccc(F)cc1 [Example 128, (S)-8-(4-(bis(4-fluorophenyl)methyl)-3-ethylpiperazin-1-yl)-5-methyl-6-oxo-5,6-dihydro-1,5-naphthyridine-2-carbonitrile]
pIC50 (human DGKα): 4.33
pIC50 (human DGKζ): 5.70
pIC50 [1]: 6.03
pEC50 (naïve human CD8 T cells): 5.85
pEC50 (Human venous whole blood; 24 h): 4.70
